Reference: patent publication US11905259B1, “2-(benzo[d]oxazol-2-yl)-N′-(4-(dimethylamino)benzoyloxy)acetimidamide as an antimicrobial compound” (KING FAISAL UNIVERSITY, priority 2023, dated 2024)

What was measured:
Aspergillus flavus = experiment: agar plate disc-diffusion, antifungal activity; format: cell-based
Protocol: (§1) The agar plate disc-diffusion method was applied. Sterilized filter papers (6 mm in diameter) were wetted with 10 μL of a solution of 2-(benzo[d]oxazol-2-yl)-N′-(4-(dimethylamino)benzoyloxy)acetimidamide (3) to be tested, containing 10 mg/mL in DMSO, and the discs were allowed to air dry. The discs were then placed onto the surface of agar plates (nutrient agar for bacteria and Sabouraud's dextrose agar for fungi) seeded with the test organism. Each plate contained 15 mL of the agar medium, previously seeded with 0.2 mL of the broth culture of each organism pregrown for 18 hours. The plates were incubated at 37° C. for 48 hours, and 72 hours for fungi. The inhibition zones was measured in mm. Discs impregnated with DMSO were used as a control, and its inhibition zone was subtracted from the tested compound actual inhibition zone.

Bacillus cereus = experiment: agar plate disc-diffusion, antibacterial activity; format: cell-based
Protocol: as §1, with “Sterilized filter papers (6 mm in diameter) were wetted with 10 μL of a solution of 2-(benzo[d]oxazol-2-yl)-N′-(4-(dimethylamino)benzoyloxy)acetimidamide (3) to be tested, containing 10 mg/mL in DMSO, and the discs were allowed to air dry.” left out

Staphylococcus aureus = experiment: agar plate disc-diffusion, antibacterial activity; format: cell-based
Protocol: as §1, with “Sterilized filter papers (6 mm in diameter) were wetted with 10 μL of a solution of 2-(benzo[d]oxazol-2-yl)-N′-(4-(dimethylamino)benzoyloxy)acetimidamide (3) to be tested, containing 10 mg/mL in DMSO, and the discs were allowed to air dry.” left out

Pseudomonas aeruginosa = experiment: agar plate disc-diffusion, antibacterial activity; format: cell-based
Protocol: as §1, with “Sterilized filter papers (6 mm in diameter) were wetted with 10 μL of a solution of 2-(benzo[d]oxazol-2-yl)-N′-(4-(dimethylamino)benzoyloxy)acetimidamide (3) to be tested, containing 10 mg/mL in DMSO, and the discs were allowed to air dry.” left out

Escherichia coli = experiment: agar plate disc-diffusion, antibacterial activity; format: cell-based
Protocol: as §1, with “Sterilized filter papers (6 mm in diameter) were wetted with 10 μL of a solution of 2-(benzo[d]oxazol-2-yl)-N′-(4-(dimethylamino)benzoyloxy)acetimidamide (3) to be tested, containing 10 mg/mL in DMSO, and the discs were allowed to air dry.” left out

[1] = system: Chrysosporium keratinophilum; experiment: agar plate disc-diffusion, antifungal activity; format: cell-based
Protocol: as §1, with “Sterilized filter papers (6 mm in diameter) were wetted with 10 μL of a solution of 2-(benzo[d]oxazol-2-yl)-N′-(4-(dimethylamino)benzoyloxy)acetimidamide (3) to be tested, containing 10 mg/mL in DMSO, and the discs were allowed to air dry.” left out

different microbes = experiment: antimicrobial screening, overall statement; format: cell-based; settings: against different microbes (bacteria and fungi screened)
Protocol: as §1

[2] = A = concentration of comp. = 10,000 uL
[3] = B = concentration of comp. = 30,000 uL
[4] = C = concentration of comp. = 50,000 uL

SMILES	inhibition zone (Aspergillus flavus; [2])	inhibition zone (Aspergillus flavus; [3])	inhibition zone (Aspergillus flavus; [4])	inhibition zone (Bacillus cereus; [2])	inhibition zone (Bacillus cereus; [3])	inhibition zone (Bacillus cereus; [4])	inhibition zone (Staphylococcus aureus; [2])	inhibition zone (Staphylococcus aureus; [3])	inhibition zone (Staphylococcus aureus; C = concentration of comp.)	inhibition zone (Pseudomonas aeruginosa; [2])	inhibition zone (Pseudomonas aeruginosa; [3])	inhibition zone (Pseudomonas aeruginosa; C =)	inhibition zone (Escherichia coli; [2])	inhibition zone (Escherichia coli; [3])	inhibition zone (Escherichia coli; [4])	inhibition zone [1, 2]	inhibition zone [1, 3]	inhibition zone [1, 4]	antimicrobial activities (different microbes)	melting point
O=C(O)c1cn(C2CC2)c2cc(N3CCNCC3)c(F)cc2c1=O [Cip., ciprofloxacin, reference compound]	28 mm	31 mm	43 mm	29 mm	31 mm	42 mm	43 mm	44 mm	53 mm	29 mm	30 mm	53 mm	30 mm	39 mm	60 mm	30 mm	33 mm	55 mm		
CN(C)c1ccc(C(=O)O/N=C(\N)Cc2nc3ccccc3o2)cc1 [Compound 3, 2-(benzo[d]oxazol-2-yl)-N′-(4-(dimethylamino)benzoyloxy)acetimidamide]	21 mm	25 mm	37 mm	26 mm	28 mm	41 mm	17 mm	22 mm	34 mm	25 mm	28 mm	39 mm	27 mm	34 mm	49 mm	25 mm	29 mm	46 mm	excellent	165 to 166 °C
